These results are taken from ChEMBL document CHEMBL1201862, “PubChem BioAssay data set” (2004).

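Grown in 96-well plates, cells were treated for 48 hours with each compound at five concentrations. Insufficient inhibition: endpoint recorded as highest concentration tested. Abbreviation: GI50, concentration required for 50% inhibition of growth.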 Calls of active or inactive are those of the source. No stated cut-off is given here; in the data, active = GI50 up to about 1.1 µM and inactive = higher.

Among the test systems are LOX IMVI; K562; OVCAR-5; UACC-257; EKVX; HOP-62; M14; MDA-MB-435; OVCAR-8; ACHN; DU-145; TK-10; SF-295; SK-MEL-28; MCF7; SK-OV-3; CCRF-CEM; T47D; RXF 393.
Holding throughout (assay): NCI anticancer screen, dose series, 48 h

With `Cn1cnc([N+](=O)[O-])c1SCC(=O)O`, the GI50 in the assay with LOX IMVI, with K562, with OVCAR-5, with UACC-257, in the assay on EKVX and with HOP-62 was > 100 µM (inactive) in each case. Besides, the GI50 in the assay with M14, in the assay on MDA-MB-435, with OVCAR-8, with ACHN, in the assay with DU-145 and in the assay with TK-10 was > 100 µM (inactive) each time. In addition, the GI50 with SF-295, in the assay with SK-MEL-28, with MCF7, in the assay on SK-OV-3, with CCRF-CEM and with T47D was > 100 µM (inactive) in each case. Moreover, in the assay on RXF 393, the GI50 is > 100 µM (inactive).

Consider `CC(C)/C(Cl)=N/OC(=O)Nc1ccc(Cl)c(Cl)c1`, for which the GI50 was 1.64 µM (inactive) with LOX IMVI; 0.989 µM (active) in the assay with K562; 16 µM (inactive) with OVCAR-5; 14.6 µM (inactive) with UACC-257; 2 µM (inactive) with EKVX; 18.2 µM (inactive) with HOP-62. For the same molecule, the GI50 in the assay with M14 was 2.45 µM (inactive); in the assay on MDA-MB-435, 5.68 µM (inactive); with OVCAR-8, 18.1 µM (inactive); in the assay on ACHN it was 1.99 µM (inactive); in the assay on DU-145, 18.1 µM (inactive); with TK-10, 5.86 µM (inactive). The GI50 was 17.7 µM (inactive) with SF-295; 2.01 µM (inactive) in the assay with SK-MEL-28; 9.93 µM (inactive) in the assay on MCF7; 17.1 µM (inactive) with SK-OV-3; 0.851 µM (active) with CCRF-CEM; 4.29 µM (inactive) with T47D. For the same molecule, in the assay on RXF 393, the GI50 is 13.4 µM (inactive).

With `CC1(C)O[C@@H](CP(c2ccc3ccccc3c2)c2ccc3ccccc3c2)[C@H](CP(c2ccc3ccccc3c2)c2ccc3ccccc3c2)O1`, the GI50 in the assay on LOX IMVI is > 100 µM (inactive); in the assay with K562 it was 77.1 µM (inactive); in the assay on OVCAR-5 it was > 100 µM (inactive); in the assay on UACC-257 it was > 100 µM (inactive); in the assay on EKVX, > 100 µM (inactive); in the assay with HOP-62, > 100 µM (inactive). The GI50 with M14, with MDA-MB-435, in the assay on OVCAR-8, in the assay on ACHN, in the assay on DU-145 and in the assay with TK-10 was > 100 µM (inactive) each time. The GI50 is > 100 µM (inactive) in the assay on SF-295; > 100 µM (inactive) in the assay with SK-MEL-28; 72.3 µM (inactive) with MCF7; > 100 µM (inactive) with SK-OV-3; > 100 µM (inactive) with CCRF-CEM; 78.2 µM (inactive) in the assay with T47D. In addition, the GI50 in the assay with RXF 393 is > 100 µM (inactive).

Turning to `Cc1cn([C@@H]2O[C@H](CO[Si](C)(C)C(C)(C)C)[C@]3(O[C@H]3C(=O)NO)[C@H]2O[Si](C)(C)C(C)(C)C)c(=O)[nH]c1=O`, the GI50 is 1.76 µM (inactive) with LOX IMVI; 2.47 µM (inactive) in the assay with K562; 1.78 µM (inactive) in the assay with OVCAR-5; 2.59 µM (inactive) in the assay on UACC-257; 1.84 µM (inactive) in the assay with EKVX; 1.76 µM (inactive) in the assay with HOP-62. The GI50 in the assay on M14 was 1.85 µM (inactive); in the assay with MDA-MB-435, 2.07 µM (inactive); with OVCAR-8 it was 1.79 µM (inactive); in the assay on ACHN, 1.7 µM (inactive); in the assay with DU-145, 1.89 µM (inactive); in the assay with TK-10 it was 2.29 µM (inactive). Besides, the GI50 was 1.77 µM (inactive) with SF-295; 1.76 µM (inactive) with SK-MEL-28; 1.71 µM (inactive) with MCF7; 1.87 µM (inactive) in the assay on SK-OV-3; 0.634 µM (active) in the assay with CCRF-CEM; 1.66 µM (inactive) with T47D. In addition, the GI50 in the assay with RXF 393 is 1.73 µM (inactive).

As to `CC1(c2ccc(F)cc2)CC(c2ccc(F)cc2)=C(C#N)C(=C(C#N)C#N)N1` (stereo not given), the GI50 in the assay with LOX IMVI is 18.6 µM (inactive); in the assay on K562, 11 µM (inactive); with OVCAR-5, 19.8 µM (inactive); with UACC-257, 15.3 µM (inactive); with EKVX, 17 µM (inactive); in the assay with HOP-62, 19.7 µM (inactive). The GI50 was 18.7 µM (inactive) in the assay on M14; 16.6 µM (inactive) in the assay with MDA-MB-435; 20.1 µM (inactive) in the assay with OVCAR-8; 16.6 µM (inactive) in the assay on ACHN; 15.2 µM (inactive) in the assay on DU-145; 18.1 µM (inactive) with TK-10. For the same molecule, the GI50 in the assay on SF-295 was 16.9 µM (inactive); with SK-MEL-28, 24 µM (inactive); in the assay with MCF7, 14.5 µM (inactive); in the assay with SK-OV-3 it was 21.8 µM (inactive); in the assay on CCRF-CEM it was 2.11 µM (inactive); with T47D it was 13.3 µM (inactive). Also, the GI50 with RXF 393 is 12.8 µM (inactive).

For the molecule `O=C(c1ccccc1)c1ccc2[nH]c(-c3c(Cl)c(Cl)c(Cl)c(Cl)c3C(=O)N/N=C/c3ccc(Cl)cc3)nc2c1`, the GI50 in the assay on LOX IMVI is 34 µM (inactive); in the assay on K562 it was 23.7 µM (inactive); with OVCAR-5, 64.7 µM (inactive); in the assay with UACC-257, 43.3 µM (inactive); in the assay with EKVX, 23.2 µM (inactive); in the assay on HOP-62, 31.7 µM (inactive). In addition, the GI50 in the assay with M14 was 30.1 µM (inactive); in the assay with MDA-MB-435, 32.8 µM (inactive); with OVCAR-8 it was 51.8 µM (inactive); in the assay on ACHN, 19.9 µM (inactive); with DU-145, 56.8 µM (inactive); in the assay with TK-10 it was 40.1 µM (inactive). The GI50 was 29 µM (inactive) with SF-295; 33 µM (inactive) in the assay with SK-MEL-28; 20.6 µM (inactive) with MCF7; 41.1 µM (inactive) in the assay with SK-OV-3; 18.3 µM (inactive) with CCRF-CEM; 18.3 µM (inactive) in the assay on T47D. For the same molecule, the GI50 in the assay on RXF 393 is 22.5 µM (inactive).

Take `COC(=O)c1cc2cc3c(c(O)c2c(=O)o1)O[C@@]1(Oc2c(O)c4c(c(O)c2[C@H]1OC1CC(OC)C(O)C(C)O1)C(=O)C=C(OC)C4=O)[C@H](O)C3` (stereo not given in full): the GI50 in the assay on LOX IMVI is 0.492 µM (active); in the assay on K562 it was 0.841 µM (active); in the assay with OVCAR-5, 1.84 µM (inactive); with UACC-257, 2 µM (inactive); with EKVX it was 1.74 µM (inactive); in the assay with HOP-62 it was 1.14 µM (inactive). In addition, the GI50 is 1.17 µM (inactive) with M14; 1.09 µM (active) in the assay with MDA-MB-435; 1.06 µM (active) with OVCAR-8; 0.855 µM (active) in the assay with ACHN; 0.822 µM (active) in the assay with DU-145; 2.07 µM (inactive) with TK-10. Also, the GI50 was 0.724 µM (active) in the assay on SF-295; 0.659 µM (active) in the assay on SK-MEL-28; 1.14 µM (inactive) with MCF7; 1.85 µM (inactive) in the assay with SK-OV-3; 0.889 µM (active) in the assay with CCRF-CEM; 1.5 µM (inactive) with T47D. Also, in the assay with RXF 393, the GI50 was 0.726 µM (active).

Regarding `CC(C)(CO)NC1=C(Cl)C(=O)c2c(O)ccc(O)c2C1=O`, the GI50 in the assay with LOX IMVI was 0.45 µM (active); in the assay on K562, 0.104 µM (active); in the assay on OVCAR-5, 1.65 µM (inactive); in the assay with UACC-257, 1.71 µM (inactive); with EKVX it was 1.87 µM (inactive); in the assay with HOP-62 it was 1.56 µM (inactive). The GI50 with M14 is 0.865 µM (active); in the assay on MDA-MB-435, 1.15 µM (inactive); with OVCAR-8, 1.29 µM (inactive); with ACHN, 1.7 µM (inactive); in the assay on DU-145 it was 1.9 µM (inactive); in the assay with TK-10, 1.88 µM (inactive). Moreover, the GI50 was 1.7 µM (inactive) in the assay with SF-295; 1.89 µM (inactive) in the assay with SK-MEL-28; 1.33 µM (inactive) in the assay on MCF7; 1.57 µM (inactive) with SK-OV-3; 0.33 µM (active) with CCRF-CEM; 1.93 µM (inactive) in the assay on T47D. Moreover, the GI50 with RXF 393 is 1.85 µM (inactive).

With `O=C(O)c1c(CC(Cc2ccc3c(c2)CCCC3)C(=O)O)ccc2c1CCCC2` (stereo not given), the GI50 with LOX IMVI, in the assay with K562, in the assay with OVCAR-5, in the assay with UACC-257, with EKVX and in the assay on HOP-62 was > 100 µM (inactive) throughout. The GI50 in the assay with M14, in the assay on MDA-MB-435, in the assay on OVCAR-8, in the assay on ACHN, with DU-145 and with TK-10 was > 100 µM (inactive) in each case. The GI50 with SF-295 was > 100 µM (inactive); in the assay with SK-MEL-28, > 100 µM (inactive); with MCF7, < 0.01 µM (active); in the assay on SK-OV-3, > 100 µM (inactive); with CCRF-CEM, > 100 µM (inactive); in the assay with T47D it was > 100 µM (inactive). The GI50 with RXF 393 is > 100 µM (inactive).

`C[C@]12CC[C@@H]3c4ccc(OP(=O)(O)O)cc4CC[C@H]3[C@@H]1CCC2=O`: the GI50 is 95.9 µM (inactive) with LOX IMVI; 46.3 µM (inactive) in the assay with K562; > 100 µM (inactive) in the assay with OVCAR-5; > 100 µM (inactive) with UACC-257; 42.8 µM (inactive) in the assay on EKVX; > 100 µM (inactive) in the assay with HOP-62. Also, the GI50 in the assay on M14 is 61.4 µM (inactive); in the assay with MDA-MB-435, 67.5 µM (inactive); in the assay with OVCAR-8, > 100 µM (inactive); in the assay with ACHN it was > 100 µM (inactive); in the assay on DU-145, > 100 µM (inactive); in the assay on TK-10, > 100 µM (inactive). Further, the GI50 in the assay with SF-295 is 71.8 µM (inactive); in the assay with SK-MEL-28, > 100 µM (inactive); in the assay with MCF7, > 100 µM (inactive); in the assay on SK-OV-3 it was > 100 µM (inactive); with CCRF-CEM, 27.6 µM (inactive); with T47D, 39.6 µM (inactive). In addition, the GI50 in the assay with RXF 393 was 56.9 µM (inactive).
